Laboratory results reported in PMC10880116, “Identification of potential anti-inflammatory components in Moutan Cortex by bio-affinity ultrafiltration coupled with ultra-performance liquid chromatography mass spectrometry” (Frontiers in Pharmacology, 2024).

Tests used:
[1] = tested on: RAW264.7 cells; assay: Cell viability assay (MTT); format: cell-based, mouse; conditions: 12 h
Experimental: RAW264.7 cells originated from mouse macrophage cell line were purchased from the American Type Culture Collection. DMEM medium containing 5% fetal bovine serum and 1% Penicillin G Streptomycin was used to culture the cells under 37°C in a humidified atmosphere of 5% CO2.
Then DEME with 20% MTT solution was added, followed by a 37°C incubation for extra 4 h. After the supernatant was removed, DMSO was added to dissolve the insoluble formazan product. The optical density was measured by a microplate reader at 490 nm. In this experiment, the formula used to calculate cell viability was as follows: Cell viability %=ODexperimental group– ODblank group/ODcontrol group– ODblank group×100%

[2] = target: T1, COX-2 (Homo sapiens, UniProt P35354); assay: COX-2 inhibitory activity (COX-2 Inhibitor Screening Kit, fluorescence)
T1 sequence (P35354 18-604): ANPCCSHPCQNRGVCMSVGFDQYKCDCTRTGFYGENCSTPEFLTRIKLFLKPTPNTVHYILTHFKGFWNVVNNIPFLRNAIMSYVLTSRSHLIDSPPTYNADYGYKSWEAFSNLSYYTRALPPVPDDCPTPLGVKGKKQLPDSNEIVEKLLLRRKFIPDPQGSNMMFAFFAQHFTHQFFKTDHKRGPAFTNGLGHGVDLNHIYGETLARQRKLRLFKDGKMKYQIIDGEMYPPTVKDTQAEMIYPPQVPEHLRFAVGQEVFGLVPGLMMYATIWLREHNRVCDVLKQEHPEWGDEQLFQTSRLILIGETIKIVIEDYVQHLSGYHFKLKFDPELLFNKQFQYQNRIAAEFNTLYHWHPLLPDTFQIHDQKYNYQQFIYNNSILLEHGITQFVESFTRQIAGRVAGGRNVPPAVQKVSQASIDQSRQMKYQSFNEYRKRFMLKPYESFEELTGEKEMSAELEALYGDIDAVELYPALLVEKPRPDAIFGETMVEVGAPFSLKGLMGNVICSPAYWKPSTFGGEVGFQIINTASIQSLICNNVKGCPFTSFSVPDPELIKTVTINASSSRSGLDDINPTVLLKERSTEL
Experimental: In this experiment, the inhibitory effect was determined by using COX-2 Inhibitor Screening Kits. A 96-well black plate was employed, where COX-2 cofactor working solution (5 μL), COX-2 assay buffer (75 μL), test solution (5 μL), and COX-2 working solution (5 uL) were mixed and incubated for 10 min at 37°C in the dark. Then 5 μL of probe solution, together with 5 μL of COX-2 substrate solution, was added immediately. After a 37°C incubation in the dark for another 5 min, the fluorescence value was determined at an excitation wavelength of 560 nm and emission wavelength of 590 nm. […] Besides, COX-2 Assay Buffer was used in the blank control group to replace COX-2 working solution. MC extract or potential inhibitors were dissolved with DMSO as the test solution in the sample groups.
Where, F1, F2, and F3 respectively indicate the fluorescence value of the three groups—100% enzyme activity control group, sample group and blank control group.

[3] = target: T1, COX-2; conditions: 20 μM, mixture of positive and negative control, affinity ultrafiltration
Experimental: An experimental group and inactivated enzyme group were set up in this study for comparison. 40 μL of 100 mg/mL MC extract as well as 280 μL of COX-2 (100 U/mL) was transferred to EP tube in the experimental group, in contrast to the control group where 280 μL of inactivated COX-2 (boiled in the water bath for 30 min) was used as the substitute of the activated enzyme. The tubes from both groups were incubated at 37°C in the dark for 40 min, aiming to create an optimal condition under which the potentially suitable ligands would completely combined with the enzyme. A centrifugal filter was employed for ultrafiltration at 15000 × g for 15 min. Afterwards, 300 μL of PBS was added to the samples, and the unbound small molecules were removed by 15000 × g centrifugation for 15 min. […]
UPLC-Q-Exactive-Orbitrap-MS was performed to analyze the compounds in the filtrate using Thermo Scientific Orbitrap Fusion Tribrid Mass Spectrometer (Thermo Fisher Scientific, United States) and Ultimate 3,000 Ultra-performance liquid chromatograph, at the same time with Waters ACQUITY UPLC BEH RP18 (2.1 mm × 100 mm, 1.7 μm) employed for chromatographic analysis. […] The measurements were read at the detection wavelength of 254 nm. […] By comparing peak areas of two groups, specific ligands binding to COX-2 were determined. […]

IC50 [2] [µM]	SMILES	Concentration exhibiting no cytotoxicity against RAW264.7 cells ([1]; MTT) [µM]	Concentration exhibiting no cytotoxicity against RAW264.7 cells ([1]; mouse) [µM]	Response value (HPLC peak) in active enzyme group compared with inactivated enzyme control group [3]
12.1	COC(=O)c1cc(O)c(O)c(O)c1 [Methyl gallate]	≤ 10	–	–
220	O=C(OC[C@H]1O[C@@H](OC(=O)c2cc(O)c(O)c(O)c2)[C@H](OC(=O)c2cc(O)c(O)c(O)c2)[C@@H](OC(=O)c2cc(O)c(O)c(O)c2)[C@@H]1OC(=O)c1cc(O)c(O)c(O)c1)c1cc(O)c(O)c(O)c1 [PGG, 1,2,3,4,6-Penta-O-galloyl-β-D-glucopyranose]	–	≤ 150	–
1.04	O=C(OC[C@H]1O[C@@H](OC(=O)c2cc(O)c(O)c(O)c2)[C@H](OC(=O)c2cc(O)c(O)c(O)c2)[C@@H](OC(=O)c2cc(O)c(O)c(O)c2)[C@@H]1O)c1cc(O)c(O)c(O)c1 [TGG, 1,2,3,6-Tetra-O-galloyl-β-D-glucose]	≤ 20	–	–

The next lines start with the molecule.

SMILES	IC50 [2] [µM]	Concentration exhibiting no cytotoxicity against RAW264.7 cells ([1]; MTT) [µM]	Concentration exhibiting no cytotoxicity against RAW264.7 cells ([1]; mouse) [µM]	Response value (HPLC peak) in active enzyme group compared with inactivated enzyme control group [3]
O=C(O)c1cc(O)c(O)c(O)c1 [Gallic acid]	1520	≤ 250	–	–
C[C@@]12C[C@@]3(O)O[C@@H](O1)[C@]1(COC(=O)c4ccccc4)[C@H]3C[C@@]12O[C@@H]1O[C@H](COC(=O)c2cc(O)c(O)c(O)c2)[C@@H](O)[C@H](O)[C@H]1O [Galloylpaeoniflorin]	6.68 ± 1.29	≤ 100	–	–
Nc1ncnc2c1ncn2[C@@H]1O[C@H](CO)[C@@H](O)[C@H]1O [adenosine, Adenosine]	–	–	–	no evident change
